The source of these data is patent US11591355B2 (Peloton Therapeutics, Inc., priority 2017, dated 2023).

For assay [1], the target named is T1, CD73 on U138 human neuroglioma cells (Homo sapiens, UniProt P21589).
T1 construct: U138 cells were obtained from ATCC and cultured in DMEM with 10% FBS; host or cells: U138 human neuroglioma cells
T1 sequence (P21589 27-549): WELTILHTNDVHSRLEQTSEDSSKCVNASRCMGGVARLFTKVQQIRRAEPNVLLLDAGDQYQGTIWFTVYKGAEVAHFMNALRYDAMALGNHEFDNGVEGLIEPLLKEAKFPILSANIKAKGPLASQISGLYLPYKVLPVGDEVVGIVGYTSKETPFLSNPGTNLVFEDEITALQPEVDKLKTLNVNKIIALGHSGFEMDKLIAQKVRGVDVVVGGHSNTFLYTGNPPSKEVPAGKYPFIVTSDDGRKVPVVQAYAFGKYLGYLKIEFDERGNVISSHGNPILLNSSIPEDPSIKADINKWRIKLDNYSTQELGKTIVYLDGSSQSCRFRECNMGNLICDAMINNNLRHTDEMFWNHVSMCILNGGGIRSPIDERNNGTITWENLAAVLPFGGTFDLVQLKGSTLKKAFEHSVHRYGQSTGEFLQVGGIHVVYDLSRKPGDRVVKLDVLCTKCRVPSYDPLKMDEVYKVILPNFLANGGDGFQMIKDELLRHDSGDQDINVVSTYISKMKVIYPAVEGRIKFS
As to the kind of experiment: CD73 Cell-Based Assay. The conditions noted are these: U138 cells, AMP substrate, 2 hours at 37° C., inorganic phosphate by malachite green. The method, then:
U138 human neuroglioma cells were used in these experiments. U138 cells were obtained from ATCC and cultured in DMEM with 10% FBS. 2500 cells were seeded into 96-well plate with 100 μL of media the day before the experiment. Cells were washed twice with 200 μL of assay buffer (20 mM HEPES, pH 7.4; 137 mM NaCl; 5.4 mM KCl; 1.3 mM CaCl2); 4.2 mM NaHCO3; 1 mg/mL glucose) to remove residual inorganic phosphate. After washing, 100 μL of buffer was added to each well, then 100 μL of a mixture of AMP substrate (200 μM) and diluted compound was added to each well. The cells were incubated at 37° C. (with 5% CO2) for 2 hours. 50 μL of supernatant was transferred to a 96-well assay plate and the concentration of inorganic phosphate was determined using malachite green reagent (R&D System; Cat: DY996).

The target of assay [2] is T2, Human CD73 (Homo sapiens, UniProt P21589).
T2 construct: purchased R&D Systems; host or cells: CHO cells
T2 sequence (P21589 27-549): T1 sequence (P21589 27-549)
As to the kind of experiment: CD73 Enzyme Assay. The format is biochemical.

Setting [3] is: 0.25 nM hCD73, 25 μM AMP, kinetic read at 360 nm, read-out: CD73 Enzyme Assay IC50.

Like-named read-outs stand apart in the source and are kept apart here.

Regarding `O=P(O)(O)COC[C@H]1O[C@@H](n2cnc3c(NCc4ccccc4)ncnc32)[C@H](O)[C@@H]1O` [Compound 1, [(2R,3S,4R,5R)-5-[6-(benzylamino)purin-9-yl]-3,4-dihydroxy-tetrahydrofuran-2-yl]methoxymethyl-phosphonic acid], the IC50 in assay [1] and in assay [2] (setting [3]) was more than 1000 nM throughout.

Consider `O=P(O)(O)COC[C@H]1O[C@@H](n2cnc3c(NCc4ccccc4)nc(Cl)nc32)[C@H](O)[C@@H]1O` [Compound 3, [(2R,3S,4R,5R)-5-[6-(benzylamino)-2-chloro-purin-9-yl]-3,4-dihydroxy-tetrahydrofuran-2-yl]methoxymethyl-phosphonic acid], for which the IC50 (usually the concentration that gives 50% inhibition) lay within 10 to 100 nM in assay [1] and 100 to 1000 nM in assay [2] (setting [3]).

On to `N#Cc1nc(NCc2ccccc2)c2ncn([C@@H]3O[C@H](COCP(=O)(O)O)[C@@H](O)[C@H]3O)c2n1` [Compound 4, [(2R,3S,4R,5R)-5-[6-(benzylamino)-2-cyano-purin-9-yl]-3,4-dihydroxy-tetrahydrofuran-2-yl]methoxymethyl-phosphonic acid], for which the IC50 is 100 to 1000 nM in assay [1] and less than 10 nM in assay [2] (setting [3]).

Regarding `Cn1cc(-c2nc(NCc3ccccc3)c3ncn([C@@H]4O[C@H](COCP(=O)(O)O)[C@@H](O)[C@H]4O)c3n2)cn1` [Compound 9, [(2R,3S,4R,5R)-5-[6-(benzylamino)-2-(1-methylpyrazol-4-yl)-purin-9-yl]-3,4-dihydroxy-tetrahydro-furan-2-yl]methoxy-methylphosphonic acid], the IC50 was more than 1000 nM in assay [1] and 100 to 1000 nM in assay [2] (setting [3]).

As for `CC(C)Nc1ncnc2c1ncn2[C@@H]1O[C@H](COCP(=O)(O)O)[C@@H](O)[C@H]1O` [Compound 12, [(2R,3S,4R,5R)-3,4-dihydroxy-5-[6-(iso-propylamino)purin-9-yl]tetrahydrofuran-2-yl]methoxymethyl-phosphonic acid], the values for the IC50 in assay [1] and in assay [2] (setting [3]) were more than 1000 nM and 100 to 1000 nM, respectively.

For the molecule `CC(C)Nc1nc(Cl)nc2c1ncn2[C@@H]1O[C@H](COCP(=O)(O)O)[C@@H](O)[C@H]1O` [Compound 15, [(2R,3S,4R,5R)-5-[2-chloro-6-(isopropyl-amino)purin-9-yl]-3,4-dihydroxy-tetra-hydrofuran-2-yl]-methoxymethylphos-phonic acid], the figures for the IC50 in assay [1] and in assay [2] (setting [3]) were 100 to 1000 nM and 10 to 100 nM, respectively.

As for `CC(C)Nc1nc(C#N)nc2c1ncn2[C@@H]1O[C@H](COCP(=O)(O)O)[C@@H](O)[C@H]1O` [Compound 16, [(2R,3S,4R,5R)-5-[2-cyano-6-(isopropyl-amino)purin-9-yl]-3,4-dihydroxy-tetrahydrofuran-2-yl]methoxymethyl-phosphonic acid], the IC50 in assay [1] fell in the range of 100 to 1000 nM; in assay [2] (setting [3]), 10 to 100 nM.

As to `CC(Nc1ncnc2c1ncn2[C@@H]1O[C@H](COCP(=O)(O)O)[C@@H](O)[C@H]1O)c1ccccc1` (stereo partly drawn) [Compound 18, [(2R,3S,4R,5R)-3,4-dihydroxy-5-[6-(1-phenylethylamino)purin-9-yl]tetrahydrofuran-2-yl]methoxymethylphosphonic acid], the IC50 in assay [1] and in assay [2] (setting [3]) was 100 to 1000 nM in each case.

On to `C[C@@H](Nc1nc(Cl)nc2c1ncn2[C@@H]1O[C@H](COCP(=O)(O)O)[C@@H](O)[C@H]1O)c1ccccc1` [Compound 20, [(2R,3S,4R,5R)-5-[2-chloro-6-[[(1R)-1-phenylethyl]amino]-purin-9-yl]-3,4-dihydroxy-tetrahydro-furan-2-yl]methoxy-methylphosphonic acid], for which the IC50 in assay [1] and in assay [2] (setting [3]) was 10 to 100 nM each time.

For the molecule `C[C@H](Nc1nc(Cl)nc2c1ncn2[C@@H]1O[C@H](COCP(=O)(O)O)[C@@H](O)[C@H]1O)c1ccccc1` [Compound 21, ((((2R,3S,4R,5R)-5-(2-chloro-6-(((S)-1-phenylethyl)amino)-9H-purin-9-yl)-3,4-dihydroxytetrahydrofuran-2-yl)methoxy)methyl)phosphonic acid], the IC50 in assay [1] and in assay [2] (setting [3]) was 10 to 100 nM each time.

On to `O=P(O)(O)COC[C@H]1O[C@@H](n2cnc3c(NC4CCCC4)ncnc32)[C@H](O)[C@@H]1O` [Compound 32, [(2R,3S,4R,5R)-5-[6-(cyclopentylamino)-purin-9-yl]-3,4-dihydroxy-tetrahydro-furan-2-yl]methoxy-methylphosphonic acid], for which the IC50 in assay [1] and in assay [2] (setting [3]) was 100 to 1000 nM throughout.

`C[C@H](Nc1nc(C#N)nc2c1ncn2[C@@H]1O[C@H](COCP(=O)(O)O)[C@@H](O)[C@H]1O)c1ccccc1` [Compound 36, [(2R,3S,4R,5R)-5-[2-cyano-6-[[(1S)-1-phenylethyl]amino]purin-9-yl]-3,4-dihydroxy-tetrahydrofuran-2-yl]methoxymethylphosphonic acid; 2,2,2-trifluoroacetic acid]: the IC50 in assay [1] and in assay [2] (setting [3]) was 10 to 100 nM in each case.

As for `O=P(O)(O)COC[C@H]1O[C@@H](n2cnc3c(N4CCCC4)ncnc32)[C@H](O)[C@@H]1O` [Compound 43, [(2R,3S,4R,5R)-3,4-dihydroxy-5-(6-pyrrolidin-1-ylpurin-9-yl)tetrahydrofuran-2-yl]methoxymethyl-phosphonic acid], the IC50 in assay [1] and in assay [2] (setting [3]) was 100 to 1000 nM each time.

For the molecule `O=P(O)(O)COC[C@H]1O[C@@H](n2cnc3c(-c4ccccc4)ncnc32)[C@H](O)[C@@H]1O` [Compound 46, [(2R,3S,4R,5R)-3,4-dihydroxy-5-(6-phenylpurin-9-yl)tetrahydrofuran-2-yl]methoxymethylphosphonic acid], the IC50 in assay [1] and in assay [2] (setting [3]) was more than 1000 nM in each case.

In the case of `C[C@H](Nc1ncnc2c1ncn2[C@@H]1O[C@H](COCP(=O)(O)O)[C@@H](O)[C@H]1O)c1ccc(F)cc1` [Compound 49, [(2R,3S,4R,5R)-5-[6-[[(1S)-1-(4-fluoro-phenyl)ethyl]amino]-purin-9-yl]-3,4-dihydroxy-tetrahydro-furan-2-yl]methoxy-methylphosphonic acid], the IC50 in assay [1] and in assay [2] (setting [3]) was 10 to 100 nM throughout.

`O=P(O)(O)COC[C@H]1O[C@@H](n2cnc3c(NC4CCc5ccccc54)ncnc32)[C@H](O)[C@@H]1O` (stereo partly drawn) [Compound 52]: the IC50 in assay [1] and in assay [2] (setting [3]) was 100 to 1000 nM each time.

Molecule `O=P(O)(O)COC[C@H]1O[C@@H](n2ccc3c(NC4CCCC4)nc(C(F)F)nc32)[C@H](O)[C@@H]1O` [Compound 239, [(2R,3S,4R,5R)-5-[4-(cyclopentylamino)-2-(difluoromethyl)pyrrolo-[2,3-d]pyrimidin-7-yl]-3,4-dihydroxy-tetra-hydrofuran-2-yl]-methoxymethylphos-phonic acid] came in with an IC50 in assay [1] of 10 to 100 nM.

For `O=P(O)(O)CP(=O)(O)OC[C@H]1O[C@@H](n2cnc3c(NC4CCCC4)nc(Cl)nc32)[C@H](O)[C@@H]1O` [Compound 282, [[(2R,3S,4R,5R)-5-[2-chloro-6-(cyclopentyl-amino)purin-9-yl]-3,4-dihydroxy-tetrahydro-furan-2-yl]methoxy-hydroxy-phosphoryl]-methylphosphonic acid], the IC50 in assay [2] (setting [3]) is less than 10 nM.

Consider `O=P(O)(O)COC[C@H]1O[C@@H](c2scc3c(N4CCCC4)nc(O)nc23)[C@H](O)[C@@H]1O` [Compound 302], for which the IC50 in assay [2] (setting [3]) is more than 1000 nM.

Take `Nc1ncnc2c1ncn2[C@@H]1O[C@H](COP(=O)(O)CP(=O)(O)O)[C@@H](O)[C@H]1O` [adenosine 5′-(α,β-methylene)diphosphate, reference compound]: in assay [2] (read-out: IC50), the IC50 is 50 nM.
